Source: publication PMC12635268, “Novel antimicrobial peptides and peptide-microbiome crosstalk in Appalachian salamander skin” (NPJ Biofilms and Microbiomes, 2025)

Test system: HepG2 (ATCC HB-8065)
Assay: HepG2 cytotoxicity, MTT assay
Format: cell-based, human
Settings: at concentrations up to 5.25 μg/mL (5.25 to 0.15 µg/mL), 48 h
Method: For any inhibitory peptides, HepG2 (ATCC HB-8065) cytotoxicity was tested to determine half-maximal inhibitory concentration (IC50) of human cells. The procedure involved seeding 96-well plates with 2.5 × 10^4 cells per well in 170 µL of culture medium, followed by an overnight incubation at 37 °C in a 5% CO₂ atmosphere. Subsequently, cells were exposed to varying concentrations of the test peptides, ranging from 5.25 µg/mL to 0.15 µg/mL, and incubated for an additional 48 h. Cell viability was assessed using the MTT assay, as previously described. Absorbance measurements were obtained using a PerkinElmer EnSight plate reader. The IC50 values for each compound were calculated by fitting the data to a sigmoidal dose-response curve with variable slope using GraphPad Prism software. Each assay plate included three controls: (a) background control—wells without cells and without drug; (b) positive control—wells with cells and 10 µg/mL of a known toxic compound; and (c) DMSO control—wells with cells and 0.2% DMSO, the highest concentration of DMSO used in the assay, which is non-toxic to the cells.

CC[C@H](C)[C@H](NC(=O)[C@H](CCCCN)NC(=O)[C@H](CCC(=O)O)NC(=O)[C@H](CCCCN)NC(=O)[C@H](CO)NC(=O)[C@H](CCCCN)NC(=O)[C@H](CCCNC(=N)N)NC(=O)[C@H](Cc1ccccc1)NC(=O)[C@H](Cc1ccccc1)NC(=O)[C@H](CC(=O)O)NC(=O)CNC(=O)[C@H](CC(C)C)NC(=O)[C@@H](N)CC(C)C)C(=O)NCC(=O)N[C@@H](CCCCN)C(=O)N[C@@H](CCC(=O)O)C(=O)N[C@@H](Cc1ccccc1)C(=O)N[C@@H](CCCCN)C(=O)N[C@@H](CCCNC(=N)N)C(=O)N[C@H](C(=O)N[C@H](C(=O)N[C@@H](CCC(N)=O)C(=O)N[C@@H](CCCNC(=N)N)C(=O)N[C@H](C(=O)N[C@@H](CCCCN)C(=O)N[C@@H](CC(=O)O)C(=O)N[C@@H](Cc1ccccc1)C(=O)N[C@@H](CC(C)C)C(=O)N[C@@H](CCCNC(=N)N)C(=O)N[C@@H](CC(N)=O)C(=O)N[C@@H](CC(C)C)C(=O)N[C@H](C(=O)N1CCC[C@H]1C(=O)N[C@@H](CCCNC(=N)N)C(=O)N[C@H](C(=O)N[C@@H](CCC(=O)O)C(=O)N[C@@H](CO)C(=O)O)[C@@H](C)O)C(C)C)[C@@H](C)CC)C(C)C)[C@@H](C)CC [LL-37, reference compound]
HepG2 cytotoxicity in words: No HepG2 cytotox was observed
